This is an account of results in PMC7591795, “Humulone Modulation of GABAA Receptors and Its Role in Hops Sleep-Promoting Activity” (Frontiers in Neuroscience, 2020).

“Also recorded” adds a separate entry of the source.

One assay has as its system GABAA receptors. The arrangement: method as in Benkherouf et al., 2020. As to conditions: ref Benkherouf et al., 2020; cited from earlier work.
The test system of assay [1] is native GABAA receptors in rat cerebellar membranes. The class given is binding. Here is the method:
(§1) The protein concentrations of brain membranes were determined with the Bio-Rad Coomassie blue dye-based protein assay kit (Hercules, CA, United States) as per the manufacturer’s protocol. Transfected HEK293 cells were harvested 48 h after transfection using a detaching buffer (10 mM Tris-HCl, 0.15 M NaCl, 2 mM EDTA) and centrifuged at 20,000 g for 10 min at +4 °C. The resulting pellets were suspended in the assay buffer for binding assays.
(§2) In humulone concentration series with recombinant α6β3, α6β3γ2S, and α6β3δ receptors, HEK293 cell membranes were incubated in the same above conditions for 120 min with [^3H]EBOB (1 nM) and different concentrations of humulone (30 nM–30 μM) in the presence or absence of ethanol (30 mM). […] Picrotoxin (100 μM) was used to determine the non-specific binding in all assays.
(§3) Membrane samples were filtered through Whatman GF/B glass fiber filters (Whatman International Ltd., Maidstone, United Kingdom) using a Brandel Cell Harvester (model M-24, Gaithersburg, MD, United States). The filters were rinsed three times with 5 mL of ice-cold 10 mM Tris-HCl, pH 7.4 buffer. Air-dried filters were immersed in 3 mL of Hidex AquaLight Beta scintillation liquid and radioactivity was determined in Hidex 600 SL liquid scintillation counter (Hidex, Turku, Finland).

Assay [2] concerns the target T1, recombinant α6β3δ GABAA receptors (Rattus norvegicus, UniProt P18506+P30191+P63079).
T1 construct: expressed in transfected cells; host or cells: HEK293 cells, transient CaPO4 transfection, pRK5 plasmids; cell membranes used
Nature of the assay: [3H]EBOB binding assay, recombinant α6β3δ receptors in HEK293 cell membranes. As to conditions: GABA 3 μM, α6β3δ. Here is the method:
(§4) The cells were divided and plated on 150 mm culture dishes for binding assays and 12 mm coverslips in 24-well cell culture plates for electrophysiology 24 h before transfection.
(§5) The cells were transiently transfected with rat cDNAs encoding GABAA receptor subunits (α1, L08490; α6, L08495; β3, X15468; γ2S, L08497; δ, L08496) in pRK5 plasmids under the control of CMV promoter ([Uusi-Oukari et al., 2000]). The plasmids were used in 1:1 and 1:1:1 ratio for transfections containing α1β3γ2S, α6β3, α6β3γ2S, and α6β3δ receptor subtypes. […] (Supplementary Figure S1). For electrophysiology, K4® transfection system (Biontex, München, Germany) was used according to the manufacturer’s protocol to increase expression efficiency and cell viability. […] The medium was changed 24 h after transfection and all experiments were performed 48 h after transfection.
as §1, §2, §3

The target of assay [3] is T2, recombinant α6β3γ2 GABAA receptors (Rattus norvegicus, UniProt P18508+P30191+P63079).
T2 construct: expressed in transfected cells; host or cells: HEK293 cells, transient CaPO4 transfection, pRK5 plasmids; cell membranes used
T2 sequence (P30191 20-453): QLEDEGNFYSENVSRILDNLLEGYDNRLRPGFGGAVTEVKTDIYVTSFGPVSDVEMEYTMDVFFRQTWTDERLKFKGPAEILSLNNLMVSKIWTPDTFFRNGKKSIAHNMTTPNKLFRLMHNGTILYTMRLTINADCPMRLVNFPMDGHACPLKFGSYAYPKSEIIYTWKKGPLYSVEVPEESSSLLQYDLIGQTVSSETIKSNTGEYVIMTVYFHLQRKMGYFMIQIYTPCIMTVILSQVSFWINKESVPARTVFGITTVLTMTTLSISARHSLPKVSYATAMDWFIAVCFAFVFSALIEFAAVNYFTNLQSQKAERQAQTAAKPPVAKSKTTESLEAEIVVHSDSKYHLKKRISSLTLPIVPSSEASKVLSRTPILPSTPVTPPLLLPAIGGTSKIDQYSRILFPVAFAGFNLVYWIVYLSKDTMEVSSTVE
T2 sequence (P63079 26-473): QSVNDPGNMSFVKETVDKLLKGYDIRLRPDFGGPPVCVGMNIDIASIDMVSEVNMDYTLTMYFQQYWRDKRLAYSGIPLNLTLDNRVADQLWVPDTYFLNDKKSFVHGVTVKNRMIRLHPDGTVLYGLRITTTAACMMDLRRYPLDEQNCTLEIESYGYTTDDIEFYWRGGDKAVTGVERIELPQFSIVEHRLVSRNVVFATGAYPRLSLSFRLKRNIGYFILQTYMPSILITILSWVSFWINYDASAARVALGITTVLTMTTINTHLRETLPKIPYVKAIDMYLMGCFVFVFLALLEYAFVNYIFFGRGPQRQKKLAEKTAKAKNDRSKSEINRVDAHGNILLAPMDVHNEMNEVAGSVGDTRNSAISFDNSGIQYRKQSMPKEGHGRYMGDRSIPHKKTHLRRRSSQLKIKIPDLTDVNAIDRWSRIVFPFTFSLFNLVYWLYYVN
T2 sequence (P18508 39-466): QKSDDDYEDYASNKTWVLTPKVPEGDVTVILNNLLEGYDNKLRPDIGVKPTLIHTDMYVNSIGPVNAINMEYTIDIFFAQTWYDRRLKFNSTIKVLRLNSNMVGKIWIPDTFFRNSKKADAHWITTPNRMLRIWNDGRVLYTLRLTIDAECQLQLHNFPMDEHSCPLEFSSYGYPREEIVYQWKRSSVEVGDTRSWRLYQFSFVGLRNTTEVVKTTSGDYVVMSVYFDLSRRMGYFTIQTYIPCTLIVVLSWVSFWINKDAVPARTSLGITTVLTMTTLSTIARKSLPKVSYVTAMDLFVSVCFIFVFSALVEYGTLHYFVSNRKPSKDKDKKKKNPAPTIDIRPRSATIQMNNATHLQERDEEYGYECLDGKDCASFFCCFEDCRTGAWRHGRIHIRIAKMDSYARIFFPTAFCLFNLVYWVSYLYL
Description: [3H]EBOB binding assay, recombinant α6β3γ2 receptors in HEK293 cell membranes. As to conditions: GABA 3 μM. Here is the method: as §4, §5, §1, §2, §3

The target of assay [4] is T3, recombinant α6β3 GABAA receptors (Rattus norvegicus, UniProt P30191+P63079).
T3 construct: expressed in transfected cells; host or cells: HEK293 cells, transient CaPO4 transfection, pRK5 plasmids (1:1); cell membranes used
T3 sequence (P30191 20-453): as the sequence (P30191 20-453) above
T3 sequence (P63079 26-473): as the sequence (P63079 26-473) above
Description: [3H]EBOB binding assay, recombinant α6β3 receptors in HEK293 cell membranes. The settings on record: GABA 3 μM. Here is the method:
as §4, §5, §1, §2, §3

Assay [5] has as its system native GABAA receptors in rat forebrain membranes. Description: [3H]EBOB binding assay, rat forebrain membranes. As to conditions: each compound 1 μM, GABA 3 μM, n = 3. The method, then: as §1, §2, §3
Assay [6] has the same test system. The arrangement: method as in Benkherouf et al., 2020. As to conditions: ref Benkherouf et al., 2020; cited from earlier work.
Assay [7] concerns native αβγ2 GABAA receptors, classical benzodiazepine binding site. The arrangement: method as in Benkherouf et al., 2019, 2020. As to conditions: ref Benkherouf et al., 2019, 2020; cited from earlier work.
Where [8] appears, read: ethanol 30 mM co-incubated with humulone 1 μM.

T1 sequence (P30191 20-453): as the sequence (P30191 20-453) above
T1 sequence (P63079 26-473): as the sequence (P63079 26-473) above
T1 sequence (P18506 25-449): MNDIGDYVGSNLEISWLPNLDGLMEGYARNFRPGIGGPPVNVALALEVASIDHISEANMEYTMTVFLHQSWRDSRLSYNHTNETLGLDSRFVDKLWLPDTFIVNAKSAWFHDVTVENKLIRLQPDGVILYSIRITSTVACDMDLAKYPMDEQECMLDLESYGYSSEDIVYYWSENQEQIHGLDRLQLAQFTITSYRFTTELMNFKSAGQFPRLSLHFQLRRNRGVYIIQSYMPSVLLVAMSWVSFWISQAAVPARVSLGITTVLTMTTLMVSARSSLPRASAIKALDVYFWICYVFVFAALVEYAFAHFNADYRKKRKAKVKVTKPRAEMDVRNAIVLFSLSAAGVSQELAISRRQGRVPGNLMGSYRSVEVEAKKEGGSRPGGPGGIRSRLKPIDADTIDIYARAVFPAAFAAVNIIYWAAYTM

Turning to `CCC(C)C(=O)C1=C(O)C(CC=C(C)C)=C(O)C(O)(CC=C(C)C)C1=O` (stereo not shown) [adhumulone], the “modulatory effects on GABAA receptors” value in the assay on GABAA receptors is on record as “weak modulatory effects”.
In the case of `CCO` [ethanol], the “effect of ethanol solely on [3H]EBOB binding” value in assay [1] was “neither displaces nor modulates”. In addition, the “ethanol enhancement of humulone-mediated [3H]EBOB displacement” value in assay [2] (setting [8]) was “did not significantly enhance”; in assay [3] (setting [8]) it was “did not alter; also recorded: did not enhance”; in assay [4] (setting [8]), “did not alter; also recorded: did not enhance”. The “effect of ethanol alone on GABA-induced [3H]EBOB displacement” value in assay [2] (ethanol 30 mM) is listed as “no effect; also recorded: unaffected”. The “effect of ethanol alone on GABA-induced [3H]EBOB binding” value in assay [3] (ethanol 30 mM) and in assay [4] (ethanol 30 mM) was “unaffected” each time.
Take `CC(C)=CCc1c(O)cc2c(c1O)C(=O)C[C@@H](c1ccc(O)cc1)O2` [6PN, 6-prenylnaringenin]: the “[3H]EBOB displacement normalized to the maximum radioligand binding in the presence of 3 μM GABA alone” value in assay [5] turned out to be 14.2 ± 1.4%. For the same molecule, in assay [6], the “sensitivity of modulatory effect on [3H]EBOB binding to flumazenil antagonism” value was “insensitivity”. Further, the “displacement of [3H]Ro 15-4513 binding (benzodiazepine binding site)” value in assay [7] is given as “remarkably more efficient”.
Take `CC(C)=CCC1=C(O)C(O)(CC=C(C)C)C(=O)C(C(=O)C(C)C)=C1O` (stereo not shown) [cohumulone]: the “modulatory effects on GABAA receptors” value in the assay with GABAA receptors is recorded as “weak modulatory effects”.
In the case of `COc1cc(O)c(CC=C(C)C)c2c1C(=O)CC(c1ccc(O)cc1)O2` (stereo not shown) [IXN, isoxanthohumol], in assay [5], the “[3H]EBOB displacement normalized to the maximum radioligand binding in the presence of 3 μM GABA alone” value turned out to be 14.4 ± 0.9%.
